The record followed here is patent publication US5599789A, “Method for the treatment of tumours and sarcomas” (Amrad Corporation Limited, priority 1991, dated 1997).

Format in all cases: cell-based, human
Test [1] deals with Ewing's Sarcoma cell line Al-5. The experiment in a line: Colony formation in semi-solid agar cultures, Al-5 cells. The settings on record: Al-5, 1,000 cells, day 18. The protocol:
(§1) Tumour cells obtained from biopsy and bone marrow specimens from patients with Ewing's Sarcoma were used in these studies. Approval for this project has been obtained from the Ethics Committee of the Royal Children's Hospital.
(§2) Single cell suspensions of tumour cells were obtained by mechanical disruption with an 18G or 21G needle or by pipetting, followed by incubation with dispase II (Boehringer) at a concentration of 1.2 units per ml for 10 minutes at 37° C. Prior to the addition to agar-medium the cells were vortexed gently to prevent clumping.
(§3) Clonal cell lines were grown in Iscove's Modified Dulbecco's Medium (IMDM) supplemented with 10% v/v foetal calf serum (FCS; CSL Limited, Melbourne, Australia) and were passaged either weekly or twice weekly. The characteristics of the Ewing Sarcoma cell lines used herein as described below:
(§4) Cell lines derived from the above primary cell lines (Al and Cu) are identified by an Arabic numeral (e.g. Al-1, Al-5, Al-8 or Cu-1).
(§5) The tumour cells were immobilised in 0.3% w/v agar containing Iscove's Modified Dulbecco's Medium (IMDM) and 10% v/v FCS. […] Cultures were scored for the presence of colonies (>40 cells) or clusters (<40 cells). The number of cells plated per culture ranged from 500 to 10,000 per ml. Colonies were counted on an Olympus dissecting microscope.
(§6) IL-1, IL-3, IL-4, IL-6, M-CSF, G-CSF, GM-CSF, Stem Cell Factor (SCF), TNFα, TGFα, TGFβ, EGF, aFGF, bFGF, NGF, IGF I, IGF II, PDGF and IFN-γ.
(§7) The recombinant human leukaemia inhibitory factor (LIF) was obtained from AMRAD Corporation Limited, Melbourne, Australia.

For test [2], the system named is Ewing's Sarcoma cell line Al-1. Put plainly: Colony formation in semi-solid agar cultures, Al-1 cells. The following applies: day 18. The protocol: as §1, §2, §3, §4, §5, §6, §7
For test [3], the system named is Ewing's Sarcoma cell line Al-8. Put plainly: Colony formation in semi-solid agar cultures, Al-8 cells. The settings on record: Al-8, 1,000 cells, day 18. On the procedure: as §1, §2, §3, §4, §5, §6, §7
For test [4], the system named is Ewing's Sarcoma cell line Al (uncloned). The experiment in a line: Colony formation in semi-solid agar cultures, Al (uncloned) cells. The following applies: Al(uncloned), 5,000 cells, day 18. On the procedure: as §1, §2, §3, §5, §6, §7
Test [5] concerns Ewing's Sarcoma cell line Cu-1. Put plainly: Colony formation in semi-solid agar cultures, Cu-1 cells. The settings on record: Cu-1, 10,000 cells, day 18. On the procedure:
as §1, §2, §3, §4, §5, §6, §7

For a further test, the system named is Ewing's Sarcoma cells. The experiment in a line: Colony formation in agar cultures, a number of different Ewing's cell lines (summary statements). The following applies: doses of Tables 1-3; TNF-α dose far above the physiological dose.
Description: as §5

[6] abbreviates: stimulus 100 ng, mean of duplicate colony counts.
Setting [7] is: Al-1, 1,000 cells, stimulus 100 ng, mean of duplicate colony counts.
Setting [8] is: Al-1, 10,000 cells, stimulus 100 ng, mean of duplicate colony counts.

Take TGFb: the Colonies/Cultures was 41 in test [1] (stimulus 5 ng); 540 in test [2] (Al-1, 10,000 cells, stimulus 5 ng); 45 in test [3] (stimulus 5 ng); 175 in test [4] (stimulus 5 ng); 385 in test [5] (stimulus 5 ng).

For “IL-4: commercially available growth factor, used at 1:3000”, the Colonies/Cultures worked out at 38 in test [1] (stimulus 1:3000); 47 in test [2] (Al-1, 1,000 cells, stimulus 1:3000); 720 in test [2] (Al-1, 10,000 cells, stimulus 1:3000); 82 in test [3] (stimulus 1:3000); 165 in test [4] (stimulus 1:3000); 325 in test [5] (stimulus 1:3000).

As to “aFGF: commercially available growth factor”, the Colonies/Cultures was determined as 58 in test [1] (setting [6]); 57 in test [2] (setting [7]); 975 in test [2] (setting [8]); 128 in test [3] (setting [6]); 260 in test [4] (setting [6]); 520 in test [5] (setting [6]).

“SCF: commercially available growth factor, Stem Cell Factor”: the Colonies/Cultures is reported as 42 in test [1] (setting [6]); 51 in test [2] (setting [7]); 950 in test [2] (setting [8]); 77 in test [3] (setting [6]); 225 in test [4] (setting [6]); 440 in test [5] (setting [6]).

As to TNFa, the Colonies/Cultures is listed as 0 in test [1] (stimulus 5 ug); 2 in test [2] (Al-1, 10,000 cells, stimulus 5 ug); 1 in test [3] (stimulus 5 ug); 39 in test [4] (stimulus 5 ug); 190 in test [5] (stimulus 5 ug). Also, the “Effect on colony counts of the other factors” value in the test with Ewing's Sarcoma cells is given as “with the exception of TNF-α showed any effect on colony counts”.

As to PDGF, the Colonies/Cultures came to 39 in test [1] (stimulus 30 ng); 47 in test [2] (Al-1, 1,000 cells, stimulus 30 ng); 72 in test [3] (stimulus 30 ng); 352 in test [4] (stimulus 30 ng); 390 in test [5] (stimulus 30 ng).

In the case of “NGF: commercially available growth factor”, the Colonies/Cultures came to 32 in test [1] (setting [6]); 49 in test [2] (setting [7]); 810 in test [2] (setting [8]); 52 in test [3] (setting [6]); 165 in test [4] (setting [6]); 360 in test [5] (setting [6]).

With “TGFa: commercially available growth factor”, the figures for the Colonies/Cultures in test [3] (stimulus 20 ng), in test [4] (stimulus 20 ng) and in test [5] (stimulus 20 ng) were 87, 190 and 390, respectively.
